According to patent US20230142126A1, “METHODS AND COMPOSITIONS FOR THE TREATMENT OF VIRAL DISEASES” (priority 2020, published 2023):
Values joined by “and” are separate entries in the source; they are usually repeats but may differ in a detail not shown here. Equal entries are not always repeated. Where two headings read alike, the source gives them in different places.

Experiments:
Influenza B (Flu B.Bris) = assay: CPE antiviral assay (MTS), Influenza B in MDCK cells; type: cell-based; details: CPE 3 days, at the concentrations tested
Coxsackie (A7) (CoxA7) = assay: CPE antiviral assay (MTS), Coxsackie A7 in LLC-MK2 7.1 cells; type: cell-based; details: CPE 4 days, at the concentrations tested
Measles = assay: CPE antiviral assay (MTS), Measles in MRC-5 cells; type: cell-based, Measles Virus (Edmonston); details: CPE 10 days, at the concentrations tested
Method: (§1) Viruses and cells were mixed in the presence of Balicatib (HB-121) and incubated for the assay duration as specified in Table 1. […] An antiviral effect or cytoprotective effect was considered to be observed when therapeutic agent (Balicatib or positive control indicated in Table 1) prevented virus replication. A standardized plate format was used for cytoprotective assays. […] Samples were evaluated for antiviral efficacy with triplicate measurements to determine cytotoxicity, if detectable. […]
(§2) At assay termination, the assay plates were stained with the soluble tetrazolium-based dye MTS (CellTiter®96 Reagent, Promega) to determine cell viability and quantify compound toxicity. MTS is metabolized by the mitochondrial enzymes of metabolically active cells to yield a soluble formazan product, allowing the rapid quantitative analysis of cell viability and compound cytotoxicity. […] Adhesive plate sealers were used in place of the lids, the sealed plates were inverted several times to mix the soluble formazan product and the plate was read spectrophotometrically at 490/650 nm with a Molecular Devices SpectraMax i3 plate reader. […]

[1] = tested on: Dengue virus, serotype 2 (DENV2); assay: CPE antiviral assay (MTS), Dengue virus in BHK-21 cells; type: cell-based, New Guinea C; details: CPE 5 days, at the concentrations tested
Method: as §1, §2

in vitro = details: human
[2] = Plasma concentration of Balicatib after oral dosing, based on human clinical dosing; details: 400 mg oral dosing, EC50 against SARS-CoV-2
Enterovirus 71 = assay: CPE (cytoprotection) antiviral assay with MTS readout, Enterovirus 71 in RD cells; type: cell-based, Enterovirus (EV-71(H)), strain 71H; details: for EC50: 50% inhibition of virus replication, read-out: EC 50% (EC50)
Method: Viruses and cells were mixed in the presence of Balicatib (HB-121) and incubated for the assay duration as specified in Table 1. […] An antiviral effect or cytoprotective effect was considered to be observed when therapeutic agent (Balicatib or positive control indicated in Table 1) prevented virus replication. A standardized plate format was used for cytoprotective assays. Each plate contained cell control wells (cells only), virus control wells (cells plus virus), therapeutic agent cytotoxicity wells (cells plus therapeutic agent only), therapeutic agent colorimetric control wells (therapeutic agent only), background control wells (media only), as well as experimental wells (therapeutic agent plus cells plus virus). Samples were evaluated for antiviral efficacy with triplicate measurements to determine cytotoxicity, if detectable. […] Interferon (IFN) was used as positive controls in the assays were noted as IU/mL (bioactivity defined by International Units/mL was used from the certificate of analysis information provided by the vendor, PBL Assay Science, Piscataway, NJ). In Table 2, fields labeled as “Drug 1” or “Drug 2” indicate Cells + Virus + Drug; fields labeled as “Tox 1” or “Tox 2” indicate Cells + Drug 1 or Drug 2, respectively (toxicity tested in duplicate); Cells labeled as “Color 1” or “Color 2” = Media + Drug 1 or Drug 2, respectively (colorimetric background, no cells).
At assay termination, the assay plates were stained with the soluble tetrazolium-based dye MTS (CellTiter®96 Reagent, Promega) to determine cell viability and quantify compound toxicity. MTS is metabolized by the mitochondrial enzymes of metabolically active cells to yield a soluble formazan product, allowing the rapid quantitative analysis of cell viability and compound cytotoxicity. […] At termination of the assay, 10-25 µL of MTS reagent was added per well (10% final concentration based on volume) and the microtiter plates were then incubated for 2-3 hours at 37° C., (except Rhinovirus assay plates, which were incubated at 33° C.) 5% CO2 to assess cell viability. Adhesive plate sealers were used in place of the lids, the sealed plates were inverted several times to mix the soluble formazan product and the plate was read spectrophotometrically at 490/650 nm with a Molecular Devices SpectraMax i3 plate reader.
Using an in-house computer program, the CPE data analysis was conducted and included the calculation of EC50 (50% inhibition of virus replication), EC95 (95% inhibition of virus replication), CC50 (50% cytotoxicity), CC95 (95% cytotoxicity) and selectivity index values (SI = CC/EC; also referred to as Antiviral Index or AI).
The minimum inhibitory drug concentration that reduced plaque formation by 50% (EC50) and the minimum drug concentration that inhibited cell growth by 50% (CC50) were calculated. The selectivity index (SI) for each active compound was determined by dividing the CC50 by the EC50.

[3] = tested on: SARS-CoV-2 hCoV-19/USA/WA1/2020; type: cell-based
Parainfluenza Type 3 = assay: CPE antiviral assay (MTS), Parainfluenza in LLC-MK2 7.1 cells; type: cell-based, Parainfluenza Type 3 C243; details: CPE 7 days, at the concentrations tested
Method: as §1, §2

RD cells = assay: Cytotoxicity assay (MTS dye reduction) in the cells of the Enterovirus assay; type: cell-based; details: RD cells, 4 days
Method: (§3) Viruses and cells were mixed in the presence of Balicatib (HB-121) and incubated for the assay duration as specified in Table 1. […] An antiviral effect or cytoprotective effect was considered to be observed when therapeutic agent (Balicatib or positive control indicated in Table 1) prevented virus replication. A standardized plate format was used for cytoprotective assays. Each plate contained cell control wells (cells only), virus control wells (cells plus virus), therapeutic agent cytotoxicity wells (cells plus therapeutic agent only), therapeutic agent colorimetric control wells (therapeutic agent only), background control wells (media only), as well as experimental wells (therapeutic agent plus cells plus virus). Samples were evaluated for antiviral efficacy with triplicate measurements to determine cytotoxicity, if detectable. […] Interferon (IFN) was used as positive controls in the assays were noted as IU/mL (bioactivity defined by International Units/mL was used from the certificate of analysis information provided by the vendor, PBL Assay Science, Piscataway, NJ). […]
as §2
(§4) Cells were seeded at 2,500 to 40,000 cells per well in 96-well plates in replication medium as specified in Table 3. […] After the assay readout (duration) as specified in Table 1, cell viability was determined using MTS dye reduction. […]

[4] = as above; type: cell-based; details: human
Method: as §3, §2, §4

Rhinovirus 14 (HRV 14) = assay: CPE antiviral assay (MTS), Rhinovirus 14 in H1 HeLa cells; type: cell-based, strain 1059; details: 33° C., CPE 4 days, at the concentrations tested
Adenovirus (Type 5) = assay: CPE antiviral assay (MTS), Adenovirus in HeLa cells; type: cell-based; details: CPE 6 days, at the concentrations tested
[5] = tested on: SARS-CoV-2 (strain: BEI_USA-WA1/2020); assay: microbe, parasite or virus in culture; type: cell-based; details: Severe acute respiratory syndrome coronavirus 2; Calu-3, 4 h pretreatment, MOI 0.01, 48 h post-infection, % infected cells (FIG. 1); read-out: approximate EC50
SARS-CoV-2 = assay: microbe, parasite or virus in culture; type: cell-based
[6] = tested on: Respiratory syncytial virus (RSV); assay: CPE antiviral assay (MTS), RSV in HEp-2 cells; type: cell-based, Long; details: CPE 5 days, at the concentrations tested
Method: as §1, §2

Influenza A (Flu A. Cal) = assay: CPE antiviral assay (MTS), Influenza A in MDCK cells; type: cell-based, A/California/07/2009; details: CPE 3 days, at the concentrations tested
Method: as §1, §2

HIV-1 (IIIB) = assay: CPE antiviral assay (MTS), HIV-1 in MT-4 cells; type: cell-based; details: CPE 6 days, at the concentrations tested
Method: as §1, §2

Structure (SMILES): CCCN1CCN(c2ccc(C(=O)NC3(C(=O)NCC#N)CCCCC3)cc2)CC1 [Balicatib]
- antiviral efficacy (Influenza B (Flu B.Bris)): not effective
- antiviral efficacy (Coxsackie (A7) (CoxA7)): not effective
- antiviral efficacy (Measles): not effective
- antiviral efficacy [1]: not effective
- CC50 (in vitro): > 100 µM
- time plasma concentration is above EC50 [2]: 16 to 20 h
- EC 25% (Enterovirus 71; 25% inhibition of virus replication, RD cells, CPE 4 days): 5.85 µM
- EC50 (Enterovirus 71; RD cells, CPE 4 days, listed as HB-121): 22.1 µM
- EC 95% (EC95) (Enterovirus 71; 95% inhibition of virus replication, RD cells, CPE 4 days): >30.0 µM
- EC50 (Enterovirus 71; Enterovirus A, RD, 96 h, RD cells, CPE 4 days): ~20 µM
- Selectivity Index (SI) 50% (Enterovirus 71; SI = CC50/EC50): >1.36
- Selectivity Index (SI) 25% (Enterovirus 71; SI = CC/EC at 25%): >5.13
- titer reduction in virus titer (TCID50) ([3]; 0.3 µM (lowest test concentration), A549-hACE2, MOI 0.1, 24 hours): > 3 log
- titer reduction vs virus without Balicatib (TCID50) ([3]; 5 µM, A549-hACE2, MOI 0.1, 24 hours): more than 6 log
- reduction of SARS-CoV-2 WA1/2020 ([3]; A549-hACE2 cells, 24 hours): significant reduction
- antiviral efficacy (Parainfluenza Type 3): not effective
- CC 25% (RD cells; 25% cytotoxicity): > 30.0 µM
- CC 95% (CC95) (RD cells; 95% cytotoxicity): > 30.0 µM
- CC50 at 4 days [4]: > 30 µM
- antiviral efficacy (Rhinovirus 14 (HRV 14)): not effective
- antiviral efficacy (Adenovirus (Type 5)): not effective
- EC50 [5]: 0.25 to 0.5 µM
- Overall % Inhibition (average of two experiments) Combined (SARS-CoV-2; 100 nM, 0.1 µM): 57.75%
- Overall % Inhibition (average of two experiments) Combined (SARS-CoV-2; 10 µM): 99.4%
- Selectivity Index (SI) (SARS-CoV-2; Calu-3 cells, calculated from CC50 and EC50): > 300
- inhibition at 0.1 µM (SARS-CoV-2; Severe acute respiratory syndrome coronavirus 2, Calu-3, 100 nM, read-out: Overall % Inhibition (average of two experiments) Combined): ~57%
- inhibition at 0.3 µM (SARS-CoV-2; Severe acute respiratory syndrome coronavirus 2, Calu-3, 300 nM, read-out: Overall % Inhibition (average of two experiments) Combined): 90%
- inhibition at 1 µM (SARS-CoV-2; Severe acute respiratory syndrome coronavirus 2, Calu-3, 1 µM, read-out: Overall % Inhibition (average of two experiments) Combined): ~68%
- inhibition at 3 µM (SARS-CoV-2; Severe acute respiratory syndrome coronavirus 2, Calu-3, 3 µM, read-out: Overall % Inhibition (average of two experiments) Combined): ~100%
- inhibition at 10 µM (SARS-CoV-2; Severe acute respiratory syndrome coronavirus 2, Calu-3, 10 µM, read-out: Overall % Inhibition (average of two experiments) Combined): ~100%
- inhibition at 30 µM (SARS-CoV-2; Severe acute respiratory syndrome coronavirus 2, Calu-3, 30 µM, read-out: Overall % Inhibition (average of two experiments) Combined): ~100%
- inhibition at 0.1 µM (SARS-CoV-2; Severe acute respiratory syndrome coronavirus 2, Calu-3, 72 h, 100 nM, MOI 0.1, 72 h, read-out: % Inhibition Experiment 1): 97.3%
- inhibition at 0.1 µM (SARS-CoV-2; Severe acute respiratory syndrome coronavirus 2, Calu-3, 72 h, 100 nM, MOI 0.1, 72 h, read-out: % Inhibition Experiment 2): 18%
- inhibition at 0.3 µM (SARS-CoV-2; Severe acute respiratory syndrome coronavirus 2, Calu-3, 72 h, 300 nM, MOI 0.1, 72 h, read-out: % Inhibition Experiment 2): 90%
- inhibition at 1 µM (SARS-CoV-2; Severe acute respiratory syndrome coronavirus 2, Calu-3, 72 h, 1 µM, MOI 0.1, 72 h, read-out: % Inhibition Experiment 1): 64%
- inhibition at 1 µM (SARS-CoV-2; Severe acute respiratory syndrome coronavirus 2, Calu-3, 72 h, 1 µM, MOI 0.1, 72 h, read-out: % Inhibition Experiment 2): 72.5%
- inhibition at 3 µM (SARS-CoV-2; Severe acute respiratory syndrome coronavirus 2, Calu-3, 72 h, 3 µM, MOI 0.1, 72 h, read-out: % Inhibition Experiment 2): 100%
- inhibition at 10 µM (SARS-CoV-2; Severe acute respiratory syndrome coronavirus 2, Calu-3, 72 h, 10 µM, MOI 0.1, 72 h, read-out: % Inhibition Experiment 1): 98.8%
- inhibition at 10 µM (SARS-CoV-2; Severe acute respiratory syndrome coronavirus 2, Calu-3, 72 h, 10 µM, MOI 0.1, 72 h, read-out: % Inhibition Experiment 2): 100%
- inhibition at 30 µM (SARS-CoV-2; Severe acute respiratory syndrome coronavirus 2, Calu-3, 72 h, 30 µM, MOI 0.1, 72 h, read-out: % Inhibition Experiment 2): 100%
- EC90 (SARS-CoV-2; Severe acute respiratory syndrome coronavirus 2, Calu-3, plaque assay, estimated): 1 to 3 µM
- EC50 (SARS-CoV-2; Severe acute respiratory syndrome coronavirus 2, Calu-3, plaque assay, estimated from two studies): 0.05 to 0.6 µM
- antiviral efficacy [6]: not effective
- antiviral efficacy (Influenza A (Flu A. Cal)): not effective
- Cell Appearance (Calu-3 human cells; 100 µM (Table 6)): No CPEs
- Viability (%) at 24 hr time point (Calu-3 human cells; 100 µM, 24 hr, 98.7% viability at seeding): 71.0% and 72.1%
- effect on cell growth (Calu-3 human cells; 100 µM, Calu-3): little to no effect on cell growth
- effect on cellular viability (Calu-3 human cells; 100 µM, Calu-3): does not alter cellular viability
- Count (cells/ml) at 24 hr time point (Calu-3 human cells; 100 µM, seeded at 2.0E5 per well, 24 hr): 1.8e5 cells/ml and 1.6e5 cells/ml
- antiviral efficacy (HIV-1 (IIIB)): not effective
